Test results as given in patent US20100061928A1, “LABELLED ANALOGUES OF HALOBENZAMIDES AS RADIOPHARMACEUTICALS” (Institut National De La Sante et De La Recherche Medicale …, priority 2006, published 2010).
Where a name gives a salt, the structure may show the parent alone. Blank lines part the entries; values can stand above or below the molecule they belong to.

Experiments:
[1] = tested on: grafted B16 F0 murine melanoma tumour; assay: Biodistribution of the ^125I-labelled molecules in the melanoma-bearing mouse (autoradiography of whole-body sections); details: ^125I-labelled compound
tumour = assay: Dosimetry with regard to the tumour (MIRD programme, extrapolated to ^131I); details: for Effective period: extrapolated to 131I labelling; for Biological period: from biodistribution data
[2] = Elimination of the molecules: cumulative urinary and faecal excretion 0-72 hours; type: in vivo, mouse; details: for Faecal elimination 0-72 hours (Faeces) / Urinary and faecal elimination 0-72 hours (Total) / Urinary elimination 0-72 hours (Urine): cumulative excretion 0-72 hours; for Faecal elimination 0-72 hours (Faeces) / Urinary elimination 0-72 hours (Urine): mice in metabolic cages; for Urinary and faecal elimination 0-72 hours (Total): urine + faeces; for elimination route (in words): urinary versus faecal, 0-72 hours

Concentration of radioactivity, B 16 (tumour), Mean ([1]; 1 H after i.v. administration): 15.49 % ID/g
Concentration of radioactivity, GB (gall bladder), Mean ([1]; 1 H after i.v. administration): 8.68 % ID/g
Concentration of radioactivity, Ic (intestinal contents), Mean ([1]; 1 H after i.v. administration): 13.44 % ID/g
Concentration of radioactivity, SV (seminal vesicles), Mean ([1]; 1 H after i.v. administration): 6.79 % ID/g
Concentration of radioactivity, Sc (stomach contents), Mean ([1]; 1 H after i.v. administration): 34.80 % ID/g
Concentration of radioactivity, blood (measured in the heart cavity), Mean ([1]; 1 H after i.v. administration): 6.67 % ID/g
Concentration of radioactivity, brain, Mean ([1]; 1 H after i.v. administration): 0.64 % ID/g
Concentration of radioactivity, kidney, Mean ([1]; 1 H after i.v. administration): 6.08 % ID/g
Concentration of radioactivity, liver, Mean ([1]; 1 H after i.v. administration): 5.14 % ID/g
Concentration of radioactivity, lungs, Mean ([1]; 1 H after i.v. administration): 7.59 % ID/g
Concentration of radioactivity, muscle (skeletal muscle), Mean ([1]; 1 H after i.v. administration): 1.48 % ID/g
Concentration of radioactivity, pancreas, Mean ([1]; 1 H after i.v. administration): 3.94 % ID/g
Concentration of radioactivity, spleen, Mean ([1]; 1 H after i.v. administration): 5.44 % ID/g
Concentration of radioactivity, testicles, Mean ([1]; 1 H after i.v. administration): 4.11 % ID/g
Concentration of radioactivity, thyroid, Mean ([1]; 1 H after i.v. administration): 25.29 % ID/g
Concentration of radioactivity, uvea (pigmented tissues of the eye), Mean ([1]; 1 H after i.v. administration): 16.66 % ID/g
Concentration of radioactivity, B 16 (tumour), Mean ([1]; 3 H after i.v. administration): 9.27 % ID/g
Concentration of radioactivity, GB (gall bladder), Mean ([1]; 3 H after i.v. administration): 6.78 % ID/g
Concentration of radioactivity, Ic (intestinal contents), Mean ([1]; 3 H after i.v. administration): 4.94 % ID/g
Concentration of radioactivity, SV (seminal vesicles), Mean ([1]; 3 H after i.v. administration): 3.78 % ID/g
Concentration of radioactivity, Sc (stomach contents), Mean ([1]; 3 H after i.v. administration): 42.71 % ID/g
Concentration of radioactivity, blood (measured in the heart cavity), Mean ([1]; 3 H after i.v. administration): 4.22 % ID/g
Concentration of radioactivity, brain, Mean ([1]; 3 H after i.v. administration): 0.22 % ID/g
Concentration of radioactivity, kidney, Mean ([1]; 3 H after i.v. administration): 3.26 % ID/g
Concentration of radioactivity, liver, Mean ([1]; 3 H after i.v. administration): 3.01 % ID/g
Concentration of radioactivity, lungs, Mean ([1]; 3 H after i.v. administration): 3.96 % ID/g
Concentration of radioactivity, pancreas, Mean ([1]; 3 H after i.v. administration): 2.53 % ID/g
Concentration of radioactivity, spleen, Mean ([1]; 3 H after i.v. administration): 2.68 % ID/g
Concentration of radioactivity, testicles, Mean ([1]; 3 H after i.v. administration): 2.43 % ID/g
Concentration of radioactivity, thyroid, Mean ([1]; 3 H after i.v. administration): 59.09 % ID/g
Concentration of radioactivity, uvea (pigmented tissues of the eye), Mean ([1]; 3 H after i.v. administration): 12.69 % ID/g
Concentration of radioactivity, B 16 (tumour), Mean ([1]; 6 H after i.v. administration): 6.97 % ID/g
Concentration of radioactivity, GB (gall bladder), Mean ([1]; 6 H after i.v. administration): 4.90 % ID/g
Concentration of radioactivity, Ic (intestinal contents), Mean ([1]; 6 H after i.v. administration): 2.98 % ID/g
Concentration of radioactivity, SV (seminal vesicles), Mean ([1]; 6 H after i.v. administration): 3.55 % ID/g
Concentration of radioactivity, Sc (stomach contents), Mean ([1]; 6 H after i.v. administration): 50.21 % ID/g
Concentration of radioactivity, blood (measured in the heart cavity), Mean ([1]; 6 H after i.v. administration): 3.71 % ID/g
Concentration of radioactivity, brain, Mean ([1]; 6 H after i.v. administration): 0.12 % ID/g
Concentration of radioactivity, kidney, Mean ([1]; 6 H after i.v. administration): 3.05 % ID/g
Concentration of radioactivity, liver, Mean ([1]; 6 H after i.v. administration): 2.09 % ID/g
Concentration of radioactivity, lungs, Mean ([1]; 6 H after i.v. administration): 3.21 % ID/g
Concentration of radioactivity, muscle (skeletal muscle), Mean ([1]; 6 H after i.v. administration): 0.53 % ID/g
Concentration of radioactivity, pancreas, Mean ([1]; 6 H after i.v. administration): 2.27 % ID/g
Concentration of radioactivity, spleen, Mean ([1]; 6 H after i.v. administration): 2.35 % ID/g
Concentration of radioactivity, testicles, Mean ([1]; 6 H after i.v. administration): 2.01 % ID/g
Concentration of radioactivity, thyroid, Mean ([1]; 6 H after i.v. administration): 7.92 % ID/g
Concentration of radioactivity, uvea (pigmented tissues of the eye), Mean ([1]; 6 H after i.v. administration): 11.50 % ID/g
Concentration of radioactivity, B 16 (tumour), Mean ([1]; 24 H after i.v. administration): 2.69 % ID/g
Concentration of radioactivity, Sc (stomach contents), Mean ([1]; 24 H after i.v. administration): 1.46 % ID/g
Concentration of radioactivity, thyroid, Mean ([1]; 24 H after i.v. administration): 111.30 % ID/g
Concentration of radioactivity, uvea (pigmented tissues of the eye), Mean ([1]; 24 H after i.v. administration): 6.07 % ID/g
Concentration of radioactivity, B 16 (tumour), Mean ([1]; 72 H after i.v. administration): 0.87 % ID/g
Concentration of radioactivity, kidney, Mean ([1]; 72 H after i.v. administration): 1.09 % ID/g
Concentration of radioactivity, thyroid, Mean ([1]; 72 H after i.v. administration): 178.80 % ID/g
Concentration of radioactivity, uvea (pigmented tissues of the eye), Mean ([1]; 72 H after i.v. administration): 2.54 % ID/g
Effective period (tumour): 17.3 h
Biological period (tumour): 19.0 hours
Faecal elimination 0-72 hours (Faeces) [2]: 5.3%
Urinary and faecal elimination 0-72 hours (Total) [2]: 72.6%
Urinary elimination 0-72 hours (Urine) [2]: 67.3%
elimination route (in words) [2]: predominantly in the urine
Compound: CCN(CC)CCNC(=O)c1ccc(I)nc1 [compound 7, N-(2-diethylaminoethyl)-6-iodonicotinamide dihydrochloride]

Concentration of radioactivity, B 16 (tumour), Mean ([1]; 1 H after i.v. administration): 8.31 % ID/g
Concentration of radioactivity, Ic (intestinal contents), Mean ([1]; 1 H after i.v. administration): 76.74 % ID/g
Concentration of radioactivity, Sc (stomach contents), Mean ([1]; 1 H after i.v. administration): 35.41 % ID/g
Concentration of radioactivity, blood (measured in the heart cavity), Mean ([1]; 1 H after i.v. administration): 1.60 % ID/g
Concentration of radioactivity, brain, Mean ([1]; 1 H after i.v. administration): 4.84 % ID/g
Concentration of radioactivity, kidney, Mean ([1]; 1 H after i.v. administration): 10.87 % ID/g
Concentration of radioactivity, liver, Mean ([1]; 1 H after i.v. administration): 11.86 % ID/g
Concentration of radioactivity, lungs, Mean ([1]; 1 H after i.v. administration): 14.41 % ID/g
Concentration of radioactivity, muscle (skeletal muscle), Mean ([1]; 1 H after i.v. administration): 1.50 % ID/g
Concentration of radioactivity, pancreas, Mean ([1]; 1 H after i.v. administration): 7.15 % ID/g
Concentration of radioactivity, spleen, Mean ([1]; 1 H after i.v. administration): 8.09 % ID/g
Concentration of radioactivity, uvea (pigmented tissues of the eye), Mean ([1]; 1 H after i.v. administration): 11.70 % ID/g
Concentration of radioactivity, B 16 (tumour), Mean ([1]; 3 H after i.v. administration): 10.22 % ID/g
Concentration of radioactivity, Ic (intestinal contents), Mean ([1]; 3 H after i.v. administration): 112.56 % ID/g
Concentration of radioactivity, Sc (stomach contents), Mean ([1]; 3 H after i.v. administration): 18.52 % ID/g
Concentration of radioactivity, blood (measured in the heart cavity), Mean ([1]; 3 H after i.v. administration): 0.79 % ID/g
Concentration of radioactivity, brain, Mean ([1]; 3 H after i.v. administration): 1.73 % ID/g
Concentration of radioactivity, kidney, Mean ([1]; 3 H after i.v. administration): 4.19 % ID/g
Concentration of radioactivity, liver, Mean ([1]; 3 H after i.v. administration): 5.21 % ID/g
Concentration of radioactivity, lungs, Mean ([1]; 3 H after i.v. administration): 3.46 % ID/g
Concentration of radioactivity, muscle (skeletal muscle), Mean ([1]; 3 H after i.v. administration): 0.49 % ID/g
Concentration of radioactivity, pancreas, Mean ([1]; 3 H after i.v. administration): 2.48 % ID/g
Concentration of radioactivity, spleen, Mean ([1]; 3 H after i.v. administration): 2.79 % ID/g
Concentration of radioactivity, uvea (pigmented tissues of the eye), Mean ([1]; 3 H after i.v. administration): 12.78 % ID/g
Concentration of radioactivity, B 16 (tumour), Mean ([1]; 6 H after i.v. administration): 9.84 % ID/g
Concentration of radioactivity, Ic (intestinal contents), Mean ([1]; 6 H after i.v. administration): 79.85 % ID/g
Concentration of radioactivity, Sc (stomach contents), Mean ([1]; 6 H after i.v. administration): 21.84 % ID/g
Concentration of radioactivity, blood (measured in the heart cavity), Mean ([1]; 6 H after i.v. administration): 0.67 % ID/g
Concentration of radioactivity, brain, Mean ([1]; 6 H after i.v. administration): 0.74 % ID/g
Concentration of radioactivity, kidney, Mean ([1]; 6 H after i.v. administration): 2.50 % ID/g
Concentration of radioactivity, liver, Mean ([1]; 6 H after i.v. administration): 3.63 % ID/g
Concentration of radioactivity, lungs, Mean ([1]; 6 H after i.v. administration): 1.70 % ID/g
Concentration of radioactivity, muscle (skeletal muscle), Mean ([1]; 6 H after i.v. administration): 0.31 % ID/g
Concentration of radioactivity, pancreas, Mean ([1]; 6 H after i.v. administration): 1.46 % ID/g
Concentration of radioactivity, spleen, Mean ([1]; 6 H after i.v. administration): 1.68 % ID/g
Concentration of radioactivity, uvea (pigmented tissues of the eye), Mean ([1]; 6 H after i.v. administration): 13.20 % ID/g
Concentration of radioactivity, B 16 (tumour), Mean ([1]; 24 H after i.v. administration): 8.16 % ID/g
Concentration of radioactivity, Ic (intestinal contents), Mean ([1]; 24 H after i.v. administration): 3.31 % ID/g
Concentration of radioactivity, Sc (stomach contents), Mean ([1]; 24 H after i.v. administration): 2.10 % ID/g
Concentration of radioactivity, blood (measured in the heart cavity), Mean ([1]; 24 H after i.v. administration): 0.10 % ID/g
Concentration of radioactivity, brain, Mean ([1]; 24 H after i.v. administration): 0.00 % ID/g
Concentration of radioactivity, kidney, Mean ([1]; 24 H after i.v. administration): 0.83 % ID/g
Concentration of radioactivity, liver, Mean ([1]; 24 H after i.v. administration): 1.61 % ID/g
Concentration of radioactivity, lungs, Mean ([1]; 24 H after i.v. administration): 0.37 % ID/g
Concentration of radioactivity, muscle (skeletal muscle), Mean ([1]; 24 H after i.v. administration): 0.19 % ID/g
Concentration of radioactivity, pancreas, Mean ([1]; 24 H after i.v. administration): 0.09 % ID/g
Concentration of radioactivity, spleen, Mean ([1]; 24 H after i.v. administration): 1.22 % ID/g
Concentration of radioactivity, uvea (pigmented tissues of the eye), Mean ([1]; 24 H after i.v. administration): 8.81 % ID/g
Concentration of radioactivity, B 16 (tumour), Mean ([1]; 72 H after i.v. administration): 0.84 % ID/g
Concentration of radioactivity, Sc (stomach contents), Mean ([1]; 72 H after i.v. administration): 0.04 % ID/g
Concentration of radioactivity, kidney, Mean ([1]; 72 H after i.v. administration): 0.71 % ID/g
Concentration of radioactivity, liver, Mean ([1]; 72 H after i.v. administration): 0.61 % ID/g
Concentration of radioactivity, uvea (pigmented tissues of the eye), Mean ([1]; 72 H after i.v. administration): 5.86 % ID/g
Effective period (tumour): 18.2 h
Biological period (tumour): 20.1 hours
Faecal elimination 0-72 hours (Faeces) [2]: 61.7%
Urinary and faecal elimination 0-72 hours (Total) [2]: 83.2%
Urinary elimination 0-72 hours (Urine) [2]: 21.5%
elimination route (in words) [2]: faecal route predominates
Compound: CCN(CC)CCNC(=O)c1cc2cc(I)ccc2[nH]1 [compound 10, N-(2-diethylaminoethyl)-5-iodoindole-2-carboxamide hydrochloride]
